Source: US6369057B1, “Quinoxalines, processes for their preparation and their use” (Aventis Pharma Deutschland GmbH, priority 1991, dated 2002)

Experiments:
[1] = system: HIV; assay: Test of preparations against HIV in cell culture (T-cell culture assay); format: cell-based; details: lowest concentration where no giant cells were observed, HIV-infected lymphocytes from donor blood, 3 days at 37° C.
Description: Test of Preparations Against HIV in Cell Culture
Complete medium additionally contains 20% fetal calf serum and 40 IU/ml recombinant interleukin 2.
Lymphocytes which have been isolated from fresh donor blood by means of Ficoll gradient centrifugation are cultured for 36 hours in complete medium with an addition of 2 μg/ml phytohemagglutinin (Wellcome) at 37° C. under 5% of CO2. After 10% of DMSO has been added, the cells are frozen at a density of 5 [formula]10^6 and stored in liquid nitrogen. For the test, the cells are defrosted, washed in RPMI medium and cultured for 3-4 days in the complete medium.
The test preparations were dissolved in DMSO at a concentration of 16.7 mg/ml and diluted in complete medium to 1 mg/ml.
0.4 ml of medium was introduced into 24-multiwell dishes. 0.1 ml of the dissolved preparation was added to the upper row of the dish, and, by transferring 0.1 ml portions, a geometric dilution series was established. Controls without preparation always contained 0.4 ml of complete medium containing 0.5% of DMSO. Lymphocyte cultures with a cell density of 5 [formula]10^5 cells/ml were infected by adding 1/50 volume supernatant from HIV-infected lymphocyte cultures. The titer of these culture supernatants was determined by end-point titration as 1-5 [formula]10^6 infectious units/ml. After 30 minutes' incubation at 37° C., the infected lymphocytes were removed by centrifugation and taken up in an equal volume of medium. From this cell suspension, 0.6 ml aliquots were transferred into all wells of the test plate. The mixtures were incubated for 3 days at 37° C.
The infected cell cultures were examined under the microscope for the presence of giant cells, which indicate active virus multiplication in the culture. The lowest concentration of preparation where no giant cells were observed was determined as inhibitory concentration against HIV. As a control, the supernatants from the culture plates were tested for the presence of HIV antigen with the aid of an HIV antigen test following the manufacturer's instructions (Organon).

[2] = molecular target: T1, HIV reverse transcriptase (RT) (Human immunodeficiency virus type 1 group M subtype B, UniProt P03366); assay: Assay for HIV reverse transcriptase inhibition (scintillation proximity assay); format: biochemical; details: for Reverse Transcriptase Assay IC50: RT from HIV cloned in E. coli, SPA, 60 minutes (37° C.)
T1 construct: The enzyme RT (from HIV cloned in E. coli); purchased HT-Biotechnology Ltd, Cambridge, UK; host or cells: E. coli
Description: Assay of the Substances for HIV Reverse Transcriptase Inhibition
The activity of reverse transcriptase (RT) was determined with the aid of a scintillation proximity assay (SPA).
The reagent kit for the RT-SPA was obtained from Amersham/Buchler (Braunschweig).
The enzyme RT (from HIV cloned in E. coli) originated from HT-Biotechnology Ltd, Cambridge, UK.
The assay was carried out using the manufacturer's (Amersham) protocol manual, with the following modifications: bovine serum albumin was added to the assay buffer to give an end concentration of 0.5 mg/ml the assay was carried out in Eppendorf reaction vessels, using 100 μl volume per batch the manufacturer's RT concentrate (5000 U/ml) was diluted in Tris-HCl buffer 20 mM; pH 7.2; 30% of glycerol, to an activity of 15 U per ml the incubation time for the mixtures was 60 minutes (37° C.) after stopping the reaction and “developing” with the bead suspension, 130 μl of mixture were transferred to 4.5 ml of Tris-HCl buffer, 10 mM; pH 7.4; 0.15 M NaCl, and the tritium activity was measured by means of a [formula]-counter.
For a pre-assay for inhibitory activity, the substances were dissolved in DMSO (stock solution c=1 mg/ml), and tested as a 10^−1, 10^−2, 10^−3, etc., dilution in DMSO.
To determine IC50 values, the inhibitor stock solutions were diluted further in Tris-HCl buffer, 50 mM, pH 8, and tested in suitable concentrations.
The concentration corresponding to a 50% enzyme inhibition was determined from a plot of RT activity versus log Clnh.

Row | SMILES | T-cell culture assay MIC [1] [µg/mL] | Reverse Transcriptase Assay IC50 [2] | MIC ([1]; Human immunodeficiency virus 1, 72 h) [µg/mL] | IC50 [2] [nM]
1 | CC(C)=CCN1c2cc(Cl)ccc2NC(=S)C1C (stereo not shown) [Example 7-2] | <0.01 | 0.07 µg/mL |  | 
2 | CC1(C)Nc2cc(Cl)ccc2NC1=S [Example 7-13] | <0.08 | 0.1 to 1 µg/mL |  | 
3 | C=CCOC(=O)N1c2cc(Cl)ccc2NC(=S)C1(C)C [Example 7-21] | <0.01 | 0.01 to 0.1 µg/mL |  | 
4 | C=C(C)OC(=O)N1c2cc(Cl)ccc2NC(=S)C1(C)C [Example 7-11] | <0.01 | 0.01 µg/mL |  | 
5 | C=C(C)OC(=O)N1c2cc(Cl)ccc2NC(=O)[C@@H]1C [Example XIII, (3S)-6-Chloro-N-(isopropenyloxycarbonyl)-3-methyl-3,4-dihydroquinoxalin-2(1H)-one] | <0.16 | 0.04 µg/mL |  | 
6 | CC1C(=O)Nc2ccc(Cl)cc2N1Cc1ccco1 (stereo not shown) [Example 10-13] | 0.08 | approx. 1 μg/ml |  | 
7 | CC1C(=O)Nc2ccc(Cl)cc2N1Cc1ccccn1 (stereo not shown) [Example 10-10] | 0.08 | approx. 1 μg/ml |  | 
8 | C=C(C)OC(=O)N1c2cccc(C)c2NC(=O)C1(C)C [Example 6-17] | <0.8 | 0.1 to 1 µg/mL |  | 
9 | CC(C)=CCN1c2ccccc2NC(=S)C1C (racemic) [Example 7-1, (3RS)-3-Methyl-4-N-(3-methyl-2-buten-1-yl)-3,4-dihydroquinoxaline-2(1H)-thione] |  |  | < 0.16 | 325
10 | CC1C(=S)Nc2ccc(Cl)cc2N1Cc1ccccc1 (stereo not shown) [Example 7-3] | <0.01 | 0.07 µg/mL |  | 
11 | CC1C(=O)Nc2ccc(Cl)cc2N1Cc1c(Cl)cccc1Cl (stereo not shown) [Example 10-27] | 0.8 | 0.1 to 1 µg/mL |  | 
12 | C#CCN1c2cc(Cl)ccc2NC(=O)C1C (stereo not shown) [Example 10-9] | <0.8 | approx. 1 μg/ml |  | 
13 | CC1C(=O)Nc2ccc(Cl)cc2N1Cc1ccccc1[N+](=O)[O-] (stereo not shown) [Example 10-18] | <0.8 | 0.1 to 1 µg/mL |  | 
14 | CC(C)=CCN1c2cccc(C)c2NC(=O)C1(C)C [Example 6-16] | <0.8 | approx. 1 μg/ml |  | 
15 | CC(C)OC(=O)N1c2cc(Cl)ccc2NC(=S)C1(C)C [Example 7-22] | <0.01 | 0.01 to 0.1 µg/mL |  | 
16 | C=C(C)OC(=O)N1c2cc(Cl)ccc2NC(=O)C1CC (stereo not shown) [Example 3-30] | <0.01 | 0.025 µg/mL |  | 
17 | C=C(C)OC(=O)N1c2cc(Cl)ccc2NC(=O)C1CSC (stereo not shown) [Example 3-76] | <0.08 | 0.018 µg/mL |  | 
18 | CC1C(=O)Nc2ccc(Cl)cc2N1Cc1cc(Cl)cc(Cl)c1 (stereo not shown) [Example 10-28] | <0.8 | 0.1 to 1 µg/mL |  | 
19 | CC(C)=CCN1c2cc(Cl)ccc2NC(=O)C1C (racemic) [VI-C, (3RS)-6-Chloro-3-methyl-4-N-(3-methyl-2-buten-1-yI)-3,4-dihydroquinoxalin-2(1H)-one] | <0.8 | 0.8 µg/mL |  | 
20 | CC1C(=O)Nc2ccc(Cl)cc2N1Cc1cccc(Cl)c1 (stereo not shown) [Example 10-20] | <0.8 | 0.1 to 1 µg/mL |  | 
21 | C=CCOC(=O)N1c2cc(Cl)ccc2NC(=O)C1C (stereo not shown) [Example 3-7] | 0.08 | 0.08 µg/mL |  | 
22 | C=C(C)OC(=O)N1c2ccc(Cl)cc2NC(=S)C1(C)C [Example 7-12] | <0.8 | approx. 1 μg/ml |  | 
23 | CC(C)=CCN1c2ccc(C)c(C)c2NC(=O)C1(C)C [Example 6-27] | <0.4 | approx. 1 μg/ml |  | 
